Results: PMC8119466, “A screen of FDA-approved drugs identifies inhibitors of protein tyrosine phosphatase 4A3 (PTP4A3 or PRL-3)” (Scientific Reports, 2021)
Counter-ions that a name gives are not always drawn. Like-named read-outs stand apart in the source and are kept apart here.

Assays:
Assay type in all cases: biochemical
recombinant PRL-1 = target: T1, recombinant PRL-1 (Homo sapiens, UniProt Q93096); assay: In vitro phosphatase assay (DiFMUP hydrolysis), PRL-1; also: test concentration or dose not given here
T1 construct: 6xHis (N, cleaved yes); made in house; host or cells: E. coli One Shot BL21 Star
T1 sequence (Q93096 1-173): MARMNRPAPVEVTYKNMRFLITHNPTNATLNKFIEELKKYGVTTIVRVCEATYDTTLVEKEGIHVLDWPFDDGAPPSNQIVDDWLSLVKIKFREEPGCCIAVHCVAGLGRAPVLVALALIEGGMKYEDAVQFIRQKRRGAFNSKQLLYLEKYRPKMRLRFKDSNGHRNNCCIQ

recombinant PRL-2 = target: T2, recombinant PRL-2 (Homo sapiens, UniProt Q12974); assay: In vitro phosphatase assay (DiFMUP hydrolysis), PRL-2;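 also: PRL-2 activity read as DiFMUP hydrolysis after 20 min at room temperature with drug, enzyme first pre-reduced at 4 °C for 20 min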
T2 construct: 6xHis (N, cleaved yes); made in house; host or cells: E. coli One Shot BL21 Star
T2 sequence (Q12974 1-167): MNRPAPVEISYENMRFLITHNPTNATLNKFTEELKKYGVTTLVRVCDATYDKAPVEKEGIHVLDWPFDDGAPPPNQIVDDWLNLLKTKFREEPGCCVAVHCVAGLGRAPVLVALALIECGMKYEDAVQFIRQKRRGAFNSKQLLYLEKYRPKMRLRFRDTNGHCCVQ

recombinant PRL-3 = target: T3, recombinant PRL-3 (Homo sapiens, UniProt O75365); assay: In vitro phosphatase assay (DiFMUP hydrolysis), PRL-3; also: test concentration or dose not given here
T3 construct: 6xHis (N, cleaved yes); made in house; host or cells: E. coli One Shot BL21 Star
T3 sequence (O75365 whole entry): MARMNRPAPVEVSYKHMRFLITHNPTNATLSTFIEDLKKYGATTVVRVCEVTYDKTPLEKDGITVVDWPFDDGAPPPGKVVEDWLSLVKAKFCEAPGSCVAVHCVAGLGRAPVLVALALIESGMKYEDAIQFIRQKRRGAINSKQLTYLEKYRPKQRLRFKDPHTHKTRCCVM

[1] = FDA-approved drug screen, compared to DMSO
[2] = FDA-approved drug screen, activity compared to DMSO

SMILES	% Phosphatase Activity (compared to DMSO) PRL-1 (recombinant PRL-1; [1]) [%]	% Phosphatase Activity (compared to DMSO) PRL-2 (recombinant PRL-2; [1]) [%]	% Phosphatase Activity (compared to DMSO) PRL-3 (recombinant PRL-3; [1]) [%]	other results
CCN(CC)C(=O)N1CCN(C)CC1.O=C(O)CC(O)(CC(=O)O)C(=O)O [Diethylcarbamazine (citrate)]	92	101	90	–
CCCCOC(=O)c1ccc(O)cc1 [Butylparaben]	91	94	80	–
OCc1cc(C(O)CNCCCCCCOCCCCc2ccccc2)ccc1O (stereo not drawn) [Salmeterol Xinafoate]	146	136	110	–
Cc1ncc([N+](=O)[O-])n1CCO [Metronidazole]	89	92	87	–
CCC1(c2cnc[nH]2)Cc2ccccc2C1 [Atipamezole]	94	109	87	–
O=c1oc2c(O)c(O)cc3c(=O)oc4c(O)c(O)cc1c4c23 [Ellagic acid]	98	89	68	–
Cc1cc(NC(=O)C2=C(O)c3ccccc3S(=O)(=O)N2C)no1 [Isoxicam]	91	91	84	–
CCCN(CCC)S(=O)(=O)c1ccc(C(=O)O)cc1 [Probenecid]	110	114	84	–
NC(=O)N1c2ccccc2C=Cc2ccccc21 [Carbamazepine]	98	112	80	–
CN(C)CC/C=C1/c2ccccc2Sc2ccc(Cl)cc21 [Chlorprothixene]	98	107	93	–
CN1[C@@H]2CC[C@H]1C[C@@H](OC(c1ccccc1)c1ccccc1)C2 [Benztropine mesylate]	94	106	89	–
COc1ccc2[nH]cc(CCNC(C)=O)c2c1 [Melatonin]	125	108	81	–
Nc1nc(N)nc(NC2CC2)n1 [Cyromazine]	90	101	78	–
CO/N=C(\C(=O)N[C@@H]1C(=O)N2C(C(=O)O)=C(CSC(=O)c3ccco3)CS[C@H]12)c1csc(N)n1.Cl [Ceftiofur HCl]	107	104	84	–
NC(CO)C(=O)NNCc1ccc(O)c(O)c1O (stereo not drawn) [Benserazide HCl]	103	99	68	–
NC(=O)c1ncn([C@@H]2O[C@H](CO)[C@@H](O)[C@H]2O)c1O [Mizoribine]	93	78	85	–
O=C1CCC(N2C(=O)c3ccccc3C2=O)C(=O)N1 (stereo not drawn) [Thalidomide]	–	–	–	% Phosphatase Activity (compared to DMSO) PRL-1 (recombinant PRL-1; [2]): 97%; % Phosphatase Activity (compared to DMSO) PRL-2 (recombinant PRL-2; [2]): 91%; % Phosphatase Activity (compared to DMSO) PRL-3 (recombinant PRL-3; [2]): 79%
COc1cc([C@@H]2c3cc4c(cc3[C@@H](O[C@@H]3O[C@@H]5CO[C@@H](C)O[C@H]5[C@H](O)[C@H]3O)[C@H]3COC(=O)[C@H]23)OCO4)cc(OC)c1O [Etoposide]	90	98	70	–
O=C(O)P(=O)(O)O [Foscarnet Sodium]	109	109	91	–
CC(=O)O[C@H]1C[C@@H]2CC[C@@H]3[C@H](CC[C@@]4(C)[C@H]3C[C@H]([N+]3(C)CCCCC3)[C@@H]4OC(C)=O)[C@@]2(C)C[C@@H]1N1CCCCC1 [Vecuronium Bromide]	–	–	–	% Phosphatase Activity (compared to DMSO) PRL-1 (recombinant PRL-1; [2]): 103%; % Phosphatase Activity (compared to DMSO) PRL-2 (recombinant PRL-2; [2]): 100%; % Phosphatase Activity (compared to DMSO) PRL-3 (recombinant PRL-3; [2]): 87%
C[C@]12C=CC(=O)N[C@@H]1CC[C@@H]1[C@@H]2CC[C@]2(C)[C@@H](C(=O)Nc3cc(C(F)(F)F)ccc3C(F)(F)F)CC[C@@H]12 [Dutasteride]	94	88	82	–

SMILES	% Phosphatase Activity (compared to DMSO) PRL-1 (recombinant PRL-1; [1]) [%]	% Phosphatase Activity (compared to DMSO) PRL-2 (recombinant PRL-2; [1]) [%]	% Phosphatase Activity (compared to DMSO) PRL-3 (recombinant PRL-3; [1]) [%]	other results
C[C@H]1COc2c(N3CCN(C)CC3)c(F)cc3c(=O)c(C(=O)O)cn1c23 [Levofloxacin]	264	314	238	–
N#C[C@@H]1C[C@@H]2C[C@@H]2N1C(=O)[C@@H](N)C12CC3CC(CC(O)(C3)C1)C2 [Saxagliptin]	106	113	79	–
COc1ccc(/C=C/C(=O)Nc2ccccc2C(=O)O)cc1OC [Tranilast]	–	–	–	% Phosphatase Activity (compared to DMSO) PRL-1 (recombinant PRL-1; [2]): 88%; % Phosphatase Activity (compared to DMSO) PRL-2 (recombinant PRL-2; [2]): 73%; % Phosphatase Activity (compared to DMSO) PRL-3 (recombinant PRL-3; [2]): 82%
COc1cc(NS(=O)(=O)c2ccc(N)cc2)nc(OC)n1 [Sulphadimethoxine]	–	–	–	% Phosphatase Activity (compared to DMSO) PRL-1 (recombinant PRL-1; [2]): 92%; % Phosphatase Activity (compared to DMSO) PRL-2 (recombinant PRL-2; [2]): 94%; % Phosphatase Activity (compared to DMSO) PRL-3 (recombinant PRL-3; [2]): 83%
CC1=C(/C=C/C(C)=C/C=C/C(C)=C\C(=O)O)C(C)(C)CCC1 [Isotretinoin]	72	71	57	–
CCCC(CCC)C(=O)O [Divalproex Sodium]	105	94	77	–
CCCCc1oc2ccccc2c1C(=O)c1cc(I)c(OCCN(CC)CC)c(I)c1 [Amiodarone HCl]	–	–	–	% Phosphatase Activity (compared to DMSO) PRL-1 (recombinant PRL-1): 97%; % Phosphatase Activity (compared to DMSO) PRL-2 (recombinant PRL-2): 117%; % Phosphatase Activity (compared to DMSO) PRL-3 (recombinant PRL-3): 102%
CCCC(=O)[O-].[Na+] [Sodium butyrate]	–	–	–	% Phosphatase Activity (compared to DMSO) PRL-1 (recombinant PRL-1; [2]): 97%; % Phosphatase Activity (compared to DMSO) PRL-2 (recombinant PRL-2; [2]): 90%; % Phosphatase Activity (compared to DMSO) PRL-3 (recombinant PRL-3; [2]): 89%
CC(C)(C)C(=O)OCOP(=O)(COCCn1cnc2c(N)ncnc21)OCOC(=O)C(C)(C)C [Adefovir Dipivoxil]	92	88	74	–
CC(=O)Oc1ccccc1C(=O)Nc1ncc([N+](=O)[O-])s1 [Nitazoxanide]	87	76	62	–
Clc1ccc(CCC(Cn2ccnc2)Sc2c(Cl)cccc2Cl)cc1 (stereo not drawn) [Butoconazole nitrate]	97	109	98	–
CN(Cc1cnc2nc(N)nc(N)c2n1)c1ccc(C(=O)N[C@@H](CCC(=O)O)C(=O)O)cc1 [Methotrexate]	92	83	70	–
COc1ccccc1OCC(O)CN1CCN(CC(=O)Nc2c(C)cccc2C)CC1 (stereo not drawn) [Ranolazine]	90	99	118	–
CC(C)n1c(/C=C/C(O)CC(O)CC(=O)O)c(-c2ccc(F)cc2)c2ccccc21 (stereo not drawn) [Fluvastatin Sodium]	81	95	89	–
O=C(CCCN1CC=C(n2c(=O)[nH]c3ccccc32)CC1)c1ccc(F)cc1 [Droperidol]	85	106	71	–
CN(C)CCc1c[nH]c2ccc(C[C@H]3COC(=O)N3)cc12 [Zolmitriptan]	–	–	–	% Phosphatase Activity (compared to DMSO) PRL-1 (recombinant PRL-1; [2]): 111%; % Phosphatase Activity (compared to DMSO) PRL-2 (recombinant PRL-2; [2]): 86%; % Phosphatase Activity (compared to DMSO) PRL-3 (recombinant PRL-3; [2]): 80%
NC(=O)c1ccc(I)c([N+](=O)[O-])c1 [Iniparib (BSI-201)]	107	112	78	–
COc1ccc2c(c1)C(=O)N(CCc1ccc(S(=O)(=O)NC(=O)NC3CCCCC3)cc1)C(=O)C2(C)C [Gliquidone]	99	86	86	–
O=C(CCCN1CCC(O)(c2ccc(Cl)cc2)CC1)c1ccc(F)cc1 [Haloperidol]	93	100	93	–
Cc1oncc1C(=O)Nc1ccc(C(F)(F)F)cc1 [Leflunomide]	88	80	67	–
